Experiments:
Format in all cases: in vivo
[1] = test system: Lolium rigidum (LOLRI); test: Herbicidal pre-emergence action (C), 320 g/ha; conditions: ca. 3 weeks
Summary of the method: (§1)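 Pre-emergence soil-surface spray: WP/EC formulation in water plus 0.5% additive, 600 l/ha, applied over freshly sown, soil-covered seeds in sandy loam. Greenhouse, optimum conditions, ~3 weeks. Visual % damage vs untreated (100% = dead).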

[2] = test system: Veronica persica (VERPE); test: Herbicidal pre-emergence action (C), 320 g/ha; conditions: ca. 3 weeks
Summary of the method: as §1

[3] = test system: Setaria viridis (SETVI); test: Herbicidal pre-emergence action (C), 320 g/ha; conditions: ca. 3 weeks
Summary of the method: as §1

[4] = test system: Alopecurus myosuroides (ALOMY); test: Herbicidal pre-emergence action (C), 320 g/ha; conditions: ca. 3 weeks
Summary of the method: as §1

[5] = test system: Amaranthus retroflexus (AMARE); test: Herbicidal pre-emergence action (C), 320 g/ha; conditions: ca. 3 weeks
Summary of the method: as §1

[6] = test system: Echinochloa crus-galli (ECHCG); test: Herbicidal pre-emergence action (C), 320 g/ha; conditions: ca. 3 weeks
Summary of the method: as §1

[7] = test system: Veronica persica (VERPE); test: Herbicidal post-emergence action (D), 320 g/ha; conditions: ca. 3 weeks
Summary of the method: (§2)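 Scores are percent visual control, where 100% means plants died and 0% means no difference from untreated, taken roughly 3 weeks after a single foliar application at 600 l water/ha with 0.5% additive to single-leaf-stage greenhouse plants grown in sandy loam.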

[8] = test system: Alopecurus myosuroides (ALOMY); test: Herbicidal post-emergence action (D), 320 g/ha; conditions: ca. 3 weeks
Summary of the method: as §2

[9] = test system: Amaranthus retroflexus (AMARE); test: Herbicidal post-emergence action (D), 320 g/ha; conditions: ca. 3 weeks
Summary of the method: as §2

[10] = test system: Polygonum convolvulus (POLCO); test: Herbicidal post-emergence action (D), 320 g/ha; conditions: ca. 3 weeks
Summary of the method: as §2

[11] = test system: Echinochloa crus-galli (ECHCG); test: Herbicidal post-emergence action (D), 320 g/ha; conditions: ca. 3 weeks
Summary of the method: as §2

[12] = test system: Digitaria sanguinalis (DIGSA); test: Herbicidal pre-emergence action (C), 320 g/ha; conditions: ca. 3 weeks
Summary of the method: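 Weed and crop seeds sown in sandy loam; WP or EC formulations applied pre-emergence to the soil surface as aqueous suspension/emulsion with 0.5% additive at 600 l water/ha. Greenhouse-grown under optimum conditions; damage visually scored after ca. 3 weeks versus untreated controls (0% = as control, 100% = plants dead).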

[13] = test system: Lolium rigidum (LOLRI); test: Herbicidal pre-emergence action (A), 1280 g/ha; conditions: visual grading after ca. 3 weeks vs untreated controls, 100% = plants have died off, 0% = as control plants
Summary of the method: (§3)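 Greenhouse pre-emergence test: formulated compound (WP/EC plus 0.5% additive, 600 l/ha water) applied to the soil over sown seeds in sandy loam. Percent herbicidal effect was rated by eye after ca. 3 weeks relative to untreated pots.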

[14] = test system: Veronica persica (VERPE); test: Herbicidal pre-emergence action (A), 1280 g/ha; conditions: visual grading after ca. 3 weeks vs untreated controls
Summary of the method: as §3

[15] = test system: Setaria viridis (SETVI); test: Herbicidal pre-emergence action (A), 1280 g/ha; conditions: visual grading after ca. 3 weeks vs untreated controls
Summary of the method: as §3

[16] = test system: Abutilon theophrasti (ABUTH); test: Herbicidal pre-emergence action (A), 1280 g/ha; conditions: visual grading after ca. 3 weeks vs untreated controls, 100% = plants have died off, 0% = as control plants
Summary of the method: as §3

[17] = test system: Alopecurus myosuroides (ALOMY); test: Herbicidal pre-emergence action (A), 1280 g/ha; conditions: visual grading after ca. 3 weeks vs untreated controls, 100% = plants have died off, 0% = as control plants
Summary of the method: as §3

[18] = test system: Amaranthus retroflexus (AMARE); test: Herbicidal pre-emergence action (A), 1280 g/ha; conditions: visual grading after ca. 3 weeks vs untreated controls
Summary of the method: as §3

[19] = test system: Poa annua (POAAN); test: Herbicidal pre-emergence action (A), 1280 g/ha; conditions: visual grading after ca. 3 weeks vs untreated controls, 100% = plants have died off, 0% = as control plants
Summary of the method: as §3

[20] = test system: Matricaria inodora (MATIN); test: Herbicidal pre-emergence action (A), 1280 g/ha; conditions: visual grading after ca. 3 weeks vs untreated controls
Summary of the method: as §3

[21] = test system: Stellaria media (STEME); test: Herbicidal pre-emergence action (A), 1280 g/ha; conditions: visual grading after ca. 3 weeks vs untreated controls
Summary of the method: as §3

[22] = test system: Kochia scoparia (KCHSC; Bassia scoparia); test: Herbicidal pre-emergence action (A), 1280 g/ha; conditions: visual grading after ca. 3 weeks vs untreated controls
Summary of the method: as §3

[23] = test system: Digitaria sanguinalis (DIGSA); test: Herbicidal pre-emergence action (A), 1280 g/ha; conditions: visual grading after ca. 3 weeks vs untreated controls, 100% = plants have died off, 0% = as control plants
Summary of the method: as §3

[24] = test system: Echinochloa crus-galli (ECHCG); test: Herbicidal pre-emergence action (A), 1280 g/ha; conditions: visual grading after ca. 3 weeks vs untreated controls, 100% = plants have died off, 0% = as control plants
Summary of the method: as §3

Compound	herbicidal effect LOLRI [1] [%]	herbicidal effect VERPE [2] [%]	herbicidal effect SETVI [3] [%]	herbicidal effect ALOMY [4] [%]	herbicidal effect AMARE [5] [%]	herbicidal effect ECHCG [6] [%]	herbicidal effect VERPE [7] [%]	herbicidal effect ALOMY [8] [%]	herbicidal effect AMARE [9] [%]	herbicidal effect POLCO [10] [%]	herbicidal effect ECHCG [11] [%]	herbicidal effect DIGSA [12] [%]	LOLRI, herbicidal effect in percent (%) [13] [%]	herbicidal effect VERPE [14] [%]	herbicidal effect SETVI [15] [%]	ABUTH, herbicidal effect in percent (%) [16] [%]	ALOMY, herbicidal effect in percent (%) [17] [%]	herbicidal effect AMARE [18] [%]	POAAN, herbicidal effect in percent (%) [19] [%]	herbicidal effect MATIN [20] [%]	other results
CCc1cc2scnc2nc1-c1ccccc1F [Example I-023]	100	90	100	100	80	100	90	90	100	90	90	100	100	100	100	90	100	100	100	100	herbicidal effect STEME [21]: 90%; herbicidal effect KCHSC [22]: 100%; DIGSA, herbicidal effect in percent (%) [23]: 100%; ECHCG, herbicidal effect in percent (%) [24]: 100%
Cc1cc2scnc2nc1-c1ccccc1 [Example I-041]	100	90	100	100	90	100	90	90	90	90	100	100	100	100	100	90	100	100	100	100	herbicidal effect STEME [21]: 100%; herbicidal effect KCHSC [22]: 100%; DIGSA, herbicidal effect in percent (%) [23]: 100%; ECHCG, herbicidal effect in percent (%) [24]: 100%
Cc1cc2scnc2nc1-c1ccccc1Cl [Example I-045]	100	90	100	100	90	100	90	90	100	90	90	100	100	100	100	90	100	100	100	100	herbicidal effect STEME [21]: 100%; herbicidal effect KCHSC [22]: 100%; DIGSA, herbicidal effect in percent (%) [23]: 100%; ECHCG, herbicidal effect in percent (%) [24]: 100%
Cc1cc2scnc2nc1-c1ccc(F)cc1F [Example I-122]	100	90	100	100	90	100	90	90	80	90	80	100	100	100	100	100	100	100	100	100	herbicidal effect STEME [21]: 100%; herbicidal effect KCHSC [22]: 100%; DIGSA, herbicidal effect in percent (%) [23]: 100%; ECHCG, herbicidal effect in percent (%) [24]: 100%
Cc1cc2scnc2nc1-c1sccc1Cl [Example I-137]	100	90	100	100	90	100	80	90	90	80	90	100	100	100	100	100	100	100	100	90	herbicidal effect STEME [21]: 100%; herbicidal effect KCHSC [22]: 100%; DIGSA, herbicidal effect in percent (%) [23]: 100%; ECHCG, herbicidal effect in percent (%) [24]: 100%

— US20230151025A1, “SUBSTITUTED THIAZOLOPYRIDINES, SALTS THEREOF AND THEIR USE AS HERBICIDALLY ACTIVE SUBSTANCES” (Bayer Aktiengesellschaft, priority 2020, published 2023)
